Structures can show the parent of a compound that is named as a salt.
Target: BRAF V600E (Homo sapiens, UniProt P15056, V600E)
Assay: HiBiT cellular BRAF^V600E degradation assay
Format: cell-based
Settings: A375.10 cells, 24 h; for DC50: concentration at which 50% of total cellular BRAF^V600E is degraded; for Emax: residual protein remaining in the cell, read-out: HiBit 24 h Emax

Chain of BRAF V600E (P15056 whole entry V600E): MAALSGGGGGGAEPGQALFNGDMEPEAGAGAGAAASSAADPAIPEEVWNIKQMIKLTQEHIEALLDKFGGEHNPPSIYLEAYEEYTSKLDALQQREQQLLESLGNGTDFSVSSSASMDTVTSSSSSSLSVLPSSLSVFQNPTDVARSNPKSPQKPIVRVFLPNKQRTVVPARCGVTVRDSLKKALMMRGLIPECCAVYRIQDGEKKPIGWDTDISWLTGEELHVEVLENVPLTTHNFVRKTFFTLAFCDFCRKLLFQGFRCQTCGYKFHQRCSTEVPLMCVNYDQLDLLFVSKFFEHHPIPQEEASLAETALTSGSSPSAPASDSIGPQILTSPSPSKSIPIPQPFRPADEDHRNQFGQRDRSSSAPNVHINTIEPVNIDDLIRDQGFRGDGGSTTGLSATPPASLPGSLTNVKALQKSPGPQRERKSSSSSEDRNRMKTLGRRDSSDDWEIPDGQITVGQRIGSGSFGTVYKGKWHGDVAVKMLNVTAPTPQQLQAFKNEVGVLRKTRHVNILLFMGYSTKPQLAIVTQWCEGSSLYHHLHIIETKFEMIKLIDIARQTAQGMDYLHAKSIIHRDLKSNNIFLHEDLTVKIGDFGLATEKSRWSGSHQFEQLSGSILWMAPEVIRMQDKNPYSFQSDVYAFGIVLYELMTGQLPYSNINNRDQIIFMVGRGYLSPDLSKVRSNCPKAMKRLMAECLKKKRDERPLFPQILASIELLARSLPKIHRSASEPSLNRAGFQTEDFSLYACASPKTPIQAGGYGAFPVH

Compound | DC50 [nM] | Emax [%]
CCN(C)S(=O)(=O)Nc1ccc(F)c(Oc2ccc3ncn(-c4cnc(N5CCN(C(=O)CC6(O)CCN(c7cc8c(cc7F)c(N7CCC(=O)NC7=O)nn8C)CC6)CC5)nc4)c(=O)c3c2)c1C#N [Example 199, 6-[2-cyano-3-[[ethyl(methyl)sulfamoyl]amino]-6-fluorophenoxy]-3-[2-[4-[2-[1-[3-(2,4-dioxo-1,3-diazinan-1-yl)-5-fluoro-1-methylindazol-6-yl]-4-hydroxypiperidin-4-yl]acetyl]piperazin-1-yl]pyrimidin-5-yl]-4-oxoquinazoline] | 21.7 | 27.9
CCN(C)S(=O)(=O)Nc1ccc(F)c(Oc2ccc3ncn([C@H]4COC5(CCC(N6CCC(c7cc8c(cc7F)c(N7CCC(=O)NC7=O)nn8C)CC6)CC5)C4)c(=O)c3c2)c1C#N (stereo partly drawn) [Example 200, 6-[2-cyano-3-[[ethyl(methyl)sulfamoyl]amino]-6-fluorophenoxy]-3-[(3R)-8-[4-[3-(2,4-dioxo-1,3-diazinan-1-yl)-5-fluoro-1-methylindazol-6-yl]piperidin-1-yl]-1-oxaspiro[4.5]decan-3-yl]-4-oxoquinazoline] | 15.9 | 26.9
CCN(C)S(=O)(=O)Nc1ccc(F)c(Oc2ccc3ncn([C@H]4COC5(CCN(C(=O)CC6(F)CCN(c7cc8c(cc7F)c(N7CCC(=O)NC7=O)nn8C)CC6)CC5)C4)c(=O)c3c2)c1C#N [Example 201, (3R)-3-[6-[2-cyano-3-[[ethyl(methyl)sulfamoyl]amino]-6-fluorophenoxy]-4-oxoquinazolin-3-yl]-8-[2-[1-[3-(2,4-dioxo-1,3-diazinan-1-yl)-5-fluoro-1-methylindazol-6-yl]-4-fluoropiperidin-4-yl]acetyl]-1-oxa-8-azaspiro[4.5]decane] | 42.5 | 27.2
CCN(C)S(=O)(=O)Nc1ccc(F)c(Oc2ccc3ncc(OC[C@@H]4[C@H]5CN(C(=O)CN6CCC(c7ccc(NC8CCC(=O)NC8=O)cc7F)CC6)C[C@@H]45)nc3c2)c1C#N (stereo partly drawn) [Example 217, 7-[2-cyano-3-[[ethyl(methyl)sulfamoyl]amino]-6-fluorophenoxy]-2-[[(1R,5S)-3-[2-[4-[4-[(2,6-dioxopiperidin-3-yl)amino]-2-fluorophenyl]piperidin-1-yl]acetyl]-3-azabicyclo[3.1.0]hexan-6-yl]methoxy]quinoxaline] | 18 | 8.83
CCN(C)S(=O)(=O)Nc1ccc(F)c(Oc2ccc3ncc(C4COC5(CCN(C(=O)CN6CCC(c7ccc(NC8CCC(=O)NC8=O)cc7F)CC6)CC5)C4)nc3c2)c1C#N (centres unmarked) [Example 221, 3-[7-[2-cyano-3-[[ethyl(methyl)sulfamoyl]amino]-6-fluorophenoxy]quinoxalin-2-yl]-8-[2-[4-[4-[(2,6-dioxopiperidin-3-yl)amino]-2-fluorophenyl]piperidin-1-yl]acetyl]-1-oxa-8-azaspiro[4.5]decane] | 30.5 | 10.3
CCN(C)S(=O)(=O)Nc1ccc(F)c(Oc2ccc3ncc([C@@H]4COC5(CCN(C(=O)CN6CCC(c7ccc(NC8CCC(=O)NC8=O)cc7F)CC6)CC5)C4)nc3c2)c1C#N (stereo partly drawn) [Example 223, (3R)-3-[7-[2-cyano-3-[[ethyl(methyl)sulfamoyl]amino]-6-fluorophenoxy]quinoxalin-2-yl]-8-[2-[4-[4-[(2,6-dioxopiperidin-3-yl)amino]-2-fluorophenyl]piperidin-1-yl]acetyl]-1-oxa-8-azaspiro[4.5]decane] | 29.6 | 10.5
CCN(C)S(=O)(=O)Nc1ccc(F)c(Oc2ccc3ncc([C@H]4COC5(CCN(C(=O)CN6CCC(c7ccc(NC8CCC(=O)NC8=O)cc7F)CC6)CC5)C4)nc3c2)c1C#N (stereo partly drawn) [Example 224, (3S)-3-[7-[2-cyano-3-[[ethyl(methyl)sulfamoyl]amino]-6-fluorophenoxy]quinoxalin-2-yl]-8-[2-[4-[4-[(2,6-dioxopiperidin-3-yl)amino]-2-fluorophenyl]piperidin-1-yl]acetyl]-1-oxa-8-azaspiro[4.5]decane] | 22.9 | 9.09
CCN(C)S(=O)(=O)Nc1ccc(F)c(Oc2ccc3ncn([C@@H]4COC5(CCN(C(=O)CC6(O)CCN(c7cc8c(cc7F)c(N7CCC(=O)NC7=O)nn8C)CC6)CC5)C4)c(=O)c3c2)c1C#N [Example 228, (3S)-3-[6-[2-cyano-3-[[ethyl(methyl)sulfamoyl]amino]-6-fluoro-phenoxy]-4-oxo-quinazolin-3-yl]-8-[2-[1-[3-(2,4-dioxohexahydropyrimidin-1-yl)-5-fluoro-1-methyl-indazol-6-yl]-4-hydroxy-4-piperidyl]acetyl]-1-oxa-8-azaspiro[4.5]decane] | 18.6 | 7.82

Results, then the compound that gave them:

DC50 [nM] | Emax [%] | Compound
18.6 | 7.82 | CCN(C)S(=O)(=O)Nc1ccc(F)c(Oc2ccc3ncc(-n4cc(N5CCCN(C(=O)CN6CCC(c7ccc(NC8CCC(=O)NC8=O)cc7F)CC6)CC5)cn4)nc3c2)c1C#N (centres unmarked) [Example 215, 7-[2-cyano-3-[[ethyl(methyl)sulfamoyl]amino]-6-fluorophenoxy]-2-[4-[4-[2-[4-[4-[(2,6-dioxopiperidin-3-yl)amino]-2-fluorophenyl]piperidin-1-yl]acetyl]-1,4-diazepan-1-yl]pyrazol-1-yl]quinoxaline]
25.2 | 10.1 | CCN(C)S(=O)(=O)Nc1ccc(F)c(Oc2ccc3ncc(OCC4CCN(C(=O)CN5CCC(c6ccc(NC7CCC(=O)NC7=O)cc6F)CC5)CC4)nc3c2)c1C#N (centres unmarked) [Example 216, 7-[2-cyano-3-[[ethyl(methyl)sulfamoyl]amino]-6-fluorophenoxy]-2-[[1-[2-[4-[4-[(2,6-dioxopiperidin-3-yl)amino]-2-fluorophenyl]piperidin-1-yl]acetyl]piperidin-4-yl]methoxy]quinoxaline]
11.3 | 6.96 | CCN(C)S(=O)(=O)Nc1ccc(F)c(Oc2ccc3ncc(C4COC5(CCN(C(=O)CN6CCC(c7ccc(NC8CCC(=O)NC8=O)cc7F)CC6)CC5)C4)cc3c2)c1C#N (centres unmarked) [Example 218, 3-[6-[2-cyano-3-[[ethyl(methyl)sulfamoyl]amino]-6-fluorophenoxy]quinolin-3-yl]-8-[2-[4-[4-[(2,6-dioxopiperidin-3-yl)amino]-2-fluorophenyl]piperidin-1-yl]acetyl]-1-oxa-8-azaspiro[4.5]decane]
21.7 | 13.9 | CCN(C)S(=O)(=O)Nc1ccc(F)c(Oc2ccc3ncc(N4CCC5(CCN(C(=O)CN6CCC(c7ccc(NC8CCC(=O)NC8=O)cc7F)CC6)CC5)C4)nc3c2)c1C#N (centres unmarked) [Example 219, 7-[2-cyano-3-[[ethyl(methyl)sulfamoyl]amino]-6-fluorophenoxy]-2-[8-[2-[4-[4-[(2,6-dioxopiperidin-3-yl)amino]-2-fluorophenyl]piperidin-1-yl]acetyl]-2,8-diazaspiro[4.5]decan-2-yl]quinoxaline]
47 | 10.5 | CCN(C)S(=O)(=O)Nc1ccc(F)c(Oc2ccc3ncc(C4CCC5(CCN(C(=O)CN6CCC(c7ccc(NC8CCC(=O)NC8=O)cc7F)CC6)CC5)C4)nc3c2)c1C#N (centres unmarked) [Example 220, 7-[2-cyano-3-[[ethyl(methyl)sulfamoyl]amino]-6-fluorophenoxy]-2-[8-[2-[4-[4-[(2,6-dioxopiperidin-3-yl)amino]-2-fluorophenyl]piperidin-1-yl]acetyl]-8-azaspiro[4.5]decan-3-yl]quinoxaline]
78 | 23 | CCN(C)S(=O)(=O)Nc1ccc(F)c(Oc2ccc3ncn(CCC4CCN(C(=O)CN5CCC(c6ccc(NC7CCC(=O)NC7=O)cc6)CC5)CC4)c(=O)c3c2)c1C#N (centres unmarked) [Example A1, 6-[2-cyano-3-[[ethyl(methyl)sulfamoyl]amino]-6-fluoro-phenoxy]-3-[2-[1-[2-[4-[4-[(2,6-dioxo-3-piperidyl)amino]phenyl]-1-piperidyl]acetyl]-4-piperidyl]ethyl]-4-oxo-quinazoline]
165 | 26 | CCN(C)S(=O)(=O)Nc1ccc(F)c(Oc2ccc3ncn(CCC4CCN(CC(=O)N5CCC(c6ccc(NC7CCC(=O)NC7=O)cc6)CC5)CC4)c(=O)c3c2)c1C#N (centres unmarked) [Example A2, 6-[2-cyano-3-[[ethyl(methyl)sulfamoyl]amino]-6-fluoro-phenoxy]-3-[2-[1-[2-[4-[4-[(2,6-dioxo-3-piperidyl)amino]phenyl]-1-piperidyl]-2-oxo-ethyl]-4-piperidyl]ethyl]-4-oxo-quinazoline, 2,2,2-trifluoroacetic acid salt]
242 | 24 | N#Cc1c(NS(=O)(=O)C2CCCC2)ccc(F)c1Oc1ccc2ncn(CCC3CCN(C(=O)CN4CCC(c5ccc(NC6CCC(=O)NC6=O)cc5)CC4)CC3)c(=O)c2c1 (centres unmarked) [Example A3, N-[2-cyano-3-[3-[2-[1-[2-[4-[4-[(2,6-dioxo-3-piperidyl)amino]phenyl]-1-piperidyl]acetyl]-4-piperidyl]ethyl]-4-oxo-quinazolin-6-yl]oxy-4-fluoro-phenyl]cyclopentanesulfonamide 2,2,2-trifluoroacetic acid salt]
